The values that follow come from patent US20210309657A1, “TRICYCLIC COMPOUNDS FOR THE TREATMENT AND PROPHYLAXIS OF BACTERIAL INFECTION” (Hoffmann-La Roche Inc., priority 2018, published 2021).

Converted amounts (≈) assume the structure as drawn. Where two headings read alike, the source gives them in different places.

The test system of data set [1] is S. aureus (ATCC29213). Put plainly: 50% growth inhibitory concentration (IC50) determination assay, S. aureus. The class given is cell-based. The conditions noted are these: Staphylococcus aureus, growth inhibition, Iso-Sensitest broth, OD 600 nm over 16h, <0.098 = the detection limit. Here is the method: (§1) The in vitro antimicrobial activity of the compounds against S. aureus (ATCC29213), K. pneumoniae (ATCC10031), and A. baumannii (ATCC17978), was determined according to the following procedure: The assay used a 10-points Iso-Sensitest broth medium to measure quantitatively the in vitro activity of the compounds against S. aureus ATCC29213, K. pneumoniae ATCC 10031, and A. baumannii ATCC17978. Stock compounds in DMSO were serially two-fold diluted (range from 50 to 0.097 μM final concentration) in 384 wells microtiter plates and inoculated with 49 μL the bacterial suspension in Iso-Sensitest broth medium to have a final cell concentration of ˜5×10^5 CFU/mL in a final volume/well of 50 μL/well. Microtiter plates were incubated at 35±2° C. Bacterial cell growth was determined with the measurement of optical density at λ=600 nm each 20 minutes over a time course of 16h. Growth inhibition was calculated during the logarithmic growth of the bacterial cells with determination of the concentration inhibiting 50% (IC50) of the growth. Compounds of the present invention were tested for their concentration inhibiting 50% (IC50). The data of IC50 over S. aureus (ATCC29213), K. pneumoniae (ATCC10031), and A. baumannii (ATCC17978) are illustrated in Table 4.

For data set [2], the system named is K. pneumoniae (ATCC10031). The experiment in a line: 50% growth inhibitory concentration (IC50) determination assay, K. pneumoniae. Type of data set: cell-based. The conditions noted are these: Klebsiella pneumoniae, growth inhibition, Iso-Sensitest broth, OD 600 nm over 16h, <0.098 = the detection limit. As for the experimental part:
as §1

Data set [3] deals with A. baumannii (ATCC17978). Put plainly: 50% growth inhibitory concentration (IC50) determination assay, A. baumannii. Type of data set: cell-based. The following applies: Acinetobacter baumannii, growth inhibition, Iso-Sensitest broth, OD 600 nm over 16h, <0.098 = the detection limit. As for the experimental part:
as §1

Data set [4] can be described thus: Lyophilisation solubility assay (LYSA). Type of data set: physicochemical. The conditions noted are these: thermodynamic from solid. As for the experimental part: The solubility of compounds of present invention was assessed by LYSA assay. Samples were prepared in duplicate from 10 mM DMSO stock solutions ([…]) diluted in 30 μL pure DMSO. After evaporation of DMSO with a centrifugal vacuum evaporator, the residue was dissolved in 0.05 M phosphate buffer (150 μL, pH 6.5), which was stirred for one hour and shook for two hours. After one night, the solution was filtered using a microtiter filter plate. Then the filtrate and its 1/10 dilution were analyzed by HPLC-UV. In addition, a four-point calibration curve was prepared from the 10 mM stock solutions and used for the solubility determination of the compounds.

The mark [5] stands for this setting: aqueous buffer, 0.05 M phosphate buffer, pH 6.5, HPLC-UV, <1.0 = the detection limit, read-out: Lysa.

Turning to `CNc1cc(F)cc2c1[nH]c1ncc(-c3cncc(C#N)c3)c(N3CCC4(C[C@H]4N)C3)c12` (stereo in doubt) [Example 1.16, 5-[6-Fluoro-8-(methylamino)-4-[cis-2-amino-5-azaspiro[2.4]heptan-5-yl]-9H-pyrido[2,3-b]indol-3-yl]pyridine-3-carbonitrile], the half-inhibitory concentration (IC50) (as a rule, the concentration needed to halve the response being measured) in data set [1] was 0.867 µM; in data set [2], below 0.098 µM; in data set [3], 0.104 µM. For the same molecule, in data set [4] (setting [5]), the solubility thermodynamic was 32 µg/mL (≈ 74.9 µM).

`CNc1cc(F)c(F)c2c1[nH]c1ncc(-c3cncc(C#N)c3)c(N3CC[C@@H](N)C3)c12` [Example 1.15, 5-[4-[(3R)-3-Aminopyrrolidin-1-yl]-5,6-difluoro-8-(methylamino)-9H-pyrido[2,3-b]indol-3-yl]pyridine-3-carbonitrile]: the IC50 in data set [1] is 0.526 µM; in data set [2], below 0.098 µM; in data set [3], 0.672 µM. For the same molecule, the solubility thermodynamic in data set [4] (setting [5]) was determined as 169 µg/mL (≈ 403 µM).

Regarding `CNc1cc(F)c(F)c2c1[nH]c1ncc(-c3cnc(C)nc3)c(N3C[C@H]4C[C@@H]3C[C@H]4N)c12` [GP-6, reference compound], the IC50 in data set [1], in data set [2] and in data set [3] was below 0.098 µM each time. Moreover, the solubility thermodynamic in data set [4] (setting [5]) was below 1 µg/mL.

Take `CCNc1cc(Cl)cc2c1[nH]c1ncc(-c3cncc(C#N)c3)c(N3CC[C@@H](N)C3)c12` [Example 1.05, 5-[4-[(3R)-3-Aminopyrrolidin-1-yl]-6-chloro-8-(ethylamino)-9H-pyrido[2,3-b]indol-3-yl]pyridine-3-carbonitrile]: the figures for the IC50 in data set [1], in data set [2] and in data set [3] were 1.79 µM, below 0.098 µM and below 0.098 µM, respectively. Besides, the solubility thermodynamic in data set [4] (setting [5]) was 28 µg/mL (≈ 64.8 µM).

For `CNc1c(F)c(F)cc2c1[nH]c1ncc(-c3cnc(C4(C(=O)O)CC4)nc3)c(N(C)C)c12` [Example 2.03, 1-(5-(4-(dimethylamino)-6,7-difluoro-8-(methylamino)-9H-pyrido[2,3-b]indol-3-yl)pyrimidin-2-yl)cyclopropanecarboxylic acid], the results for the IC50 in data set [1], in data set [2] and in data set [3] were 1.11 µM, 0.189 µM and below 0.098 µM, respectively. In addition, in data set [4] (setting [5]), the solubility thermodynamic turned out to be 410 µg/mL (≈ 935 µM).

Take `CNc1cc(F)c(F)c2c1[nH]c1ncc(-c3cncc(C#N)c3)c(N3CCC(F)(CN)C3)c12` (stereo not shown) [Example 1.22, 5-[4-[3-(Aminomethyl)-3-fluoro-pyrrolidin-1-yl]-5,6-difluoro-8-(methylamino)-9H-pyrido[2,3-b]indol-3-yl]pyridine-3-carbonitrile]: the IC50 is 0.224 µM in data set [1], below 0.098 µM in data set [2] and 0.112 µM in data set [3]. The solubility thermodynamic in data set [4] (setting [5]) amounted to 11 µg/mL (≈ 24.4 µM).

As to `CCNc1cc(F)c(F)c2c1[nH]c1ncc(-c3cnc4ccnn4c3)c(N3CCC(N)C3)c12` (stereo not shown) [Example 1.09, 4-(3-Aminopyrrolidin-1-yl)-N-ethyl-5,6-difluoro-3-pyrazolo[1,5-a]pyrimidin-6-yl-9H-pyrido[2,3-b]indol-8-amine], the figures for the IC50 in data set [1], in data set [2] and in data set [3] were 0.238 µM, below 0.098 µM and 0.147 µM, respectively. In addition, the solubility thermodynamic in data set [4] (setting [5]) turned out to be 190 µg/mL (≈ 424 µM).

With `CNc1cc(F)c(F)c2c1[nH]c1ncc(-c3cnc(OC)nc3)c(N3CCC(F)(CN)C3)c12` (stereo not shown) [Example 1.28, 4-[3-(aminomethyl)-3-fluoro-pyrrolidin-1-yl]-5,6-difluoro-3-(2-methoxypyrimidin-5-yl)-N-methyl-9H-pyrido[2,3-b]indol-8-amine], the IC50 was 0.227 µM in data set [1], below 0.098 µM in data set [2] and 0.115 µM in data set [3]. In data set [4] (setting [5]), the solubility thermodynamic turned out to be 88 µg/mL (≈ 192 µM).

For the molecule `CCNc1cc(F)c(F)c2c1[nH]c1ncc(-c3cncc(C#N)c3)c(N3CC[C@@H](N)C3)c12` [Example 1.04, 5-[4-[(3R)-3-Aminopyrrolidin-1-yl]-8-(ethylamino)-5,6-difluoro-9H-pyrido[2,3-b]indol-3-yl]pyridine-3-carbonitrile], the figures for the IC50 in data set [1], in data set [2] and in data set [3] were 0.38 µM, below 0.098 µM and 0.212 µM, respectively. In data set [4] (setting [5]), the solubility thermodynamic is 145 µg/mL (≈ 335 µM).

For `CNc1cc(F)c(F)c2c1[nH]c1ncc(-c3cncc(C#N)c3)c(N3CCCC(N)C3)c12` (stereo not shown) [Example 1.46, 5-(4-(3-Aminopiperidin-1-yl)-5,6-difluoro-8-(methylamino)-9H-pyrido[2,3-b]indol-3-yl)nicotinonitrile], the IC50 in data set [1] was 0.206 µM; in data set [2], below 0.098 µM; in data set [3], 0.387 µM. In addition, the solubility thermodynamic in data set [4] (setting [5]) amounted to 17 µg/mL (≈ 39.2 µM).

In the case of `CCOc1ncc(-c2cnc3[nH]c4c(NC)cc(F)cc4c3c2N2C3CNCC2C3)cn1` [Example 1.59, 4-(3,6-Diazabicyclo[3.1.1]heptan-6-yl)-3-(2-ethoxypyrimidin-5-yl)-6-fluoro-N-methyl-9H-pyrido[2,3-b]indol-8-amine], the IC50 in data set [1] is 0.631 µM; in data set [2], below 0.098 µM; in data set [3], 0.499 µM. Moreover, in data set [4] (pH 6.5, aqueous buffer), the solubility thermodynamic was 395 µg/mL (≈ 911 µM).

`CCNc1cc(F)cc2c1[nH]c1ncc(-c3cncc(C#N)c3)c(N3CCCC(CN)C3)c12` (stereo not shown) [Example 1.14, 5-[4-[3-(Aminomethyl)-1-piperidyl]-8-(ethylamino)-6-fluoro-9H-pyrido[2,3-b]indol-3-yl]pyridine-3-carbonitrile]: the values for the IC50 in data set [1], in data set [2] and in data set [3] were 1.21 µM, below 0.098 µM and below 0.098 µM, respectively. Also, the solubility thermodynamic in data set [4] (setting [5]) is 10 µg/mL (≈ 22.5 µM).

Consider `CNc1cc(F)c(F)c2c1[nH]c1ncc(-c3cnc(OC)nc3)c(N3CC(CN)C(F)(F)C3)c12` (stereo not shown) [Example 3.03, 4-[4-(aminomethyl)-3,3-difluoro-pyrrolidin-1-yl]-5,6-difluoro-3-(2-methoxypyrimidin-5-yl)-N-methyl-9H-pyrido[2,3-b]indol-8-amine], for which the figures for the IC50 in data set [1], in data set [2] and in data set [3] were 0.559 µM, below 0.098 µM and 0.411 µM, respectively. Moreover, the solubility thermodynamic in data set [4] (setting [5]) was found to be 125 µg/mL (≈ 263 µM).

`CNc1cc(F)c(F)c2c1[nH]c1ncc(-c3cnc(OC)nc3)c(N3CCC(CN)C3)c12` (stereo not shown) [Example 1.19, 4-[3-(Aminomethyl)pyrrolidin-1-yl]-5,6-difluoro-3-(2-methoxypyrimidin-5-yl)-N-methyl-9H-pyrido[2,3-b]indol-8-amine]: the IC50 in data set [1] is 0.712 µM; in data set [2], below 0.098 µM; in data set [3], 0.683 µM. Further, the solubility thermodynamic in data set [4] (setting [5]) was 31 µg/mL (≈ 70.5 µM).

As to `CNc1cc(F)cc2c1[nH]c1ncc(-c3cnc(OC)nc3)c(N3C4CNCC3C4)c12` [Example 1.61, 4-(3,6-Diazabicyclo[3.1.1]heptan-6-yl)-6-fluoro-3-(2-methoxypyrimidin-5-yl)-N-methyl-9H-pyrido[2,3-b]indol-8-amine], the IC50 is 0.65 µM in data set [1], below 0.098 µM in data set [2] and 0.792 µM in data set [3]. Further, in data set [4] (pH 6.5, aqueous buffer), the solubility thermodynamic worked out at 62 µg/mL (≈ 148 µM).

Take `CNc1cc(F)c(F)c2c1[nH]c1ncc(-c3cnc(OC)nc3)c(N3CCCC(N)C3)c12` (stereo not shown) [Example 1.47, 4-(3-Aminopiperidin-1-yl)-5,6-difluoro-3-(2-methoxypyrimidin-5-yl)-N-methyl-9H-pyrido[2,3-b]indol-8-amine]: the figures for the IC50 in data set [1], in data set [2] and in data set [3] were 0.275 µM, below 0.098 µM and 0.443 µM, respectively. In addition, the solubility thermodynamic in data set [4] (setting [5]) was found to be 19 µg/mL (≈ 43.2 µM).
